Data as given in patent US7435721B2, “Transport peptides such as C-terminal Erns peptide and analogues thereof” (Pepscan Systems B.V., priority 2000, dated 2008).
Converted amounts (≈) assume the structure as drawn. Like-named read-outs stand apart in the source and are kept apart here. Residues, ends and D or L forms follow the SMILES beside them. *: point of attachment. Biotin = O=C1N[C@H]2[C@H](CS[C@H]2CCCCC(=O)*)N1

Legend:
[1] = system: live cells in suspension or subconfluent monolayers; assay type: cell-based
skin of a live pig = conditions: transdermal transport; skin model not given
Description: Transdermal transport. The potential of the an E^rns peptide to penetrate the skin was tested by applying 150 μl 0.3-4 mM of biotinylated peptide in a chamber containing an isolated piece of “fresh” human breast skin or in a chamber which was glued on the skin of a live pig, or applying 50 μl of peptide solution on the skin with a cotton wool tip, or applying 50 μl of a peptide solution mixed with 50 μl of contact gel on the skin for 30 minutes to 120 minutes. After the incubation time, the pig was killed, the skin was cleaned and biopsied, and a biopsy was frozen in liquid nitrogen. Cryosections of the skin samples were fixed on microscopic slides with acetone and incubated with streptavidin-FITC ( 1/100) for 30 minutes.

guinea pig erythrocytes = test: Hemolytic assay, guinea pig erythrocytes; assay type: cell-based; conditions: 1% v/v, one hour at 37° C.
Description: Hemolytic assay. Hemolytic activity of various peptide concentrations was determined by incubation with human, guinea pig or sheep erythrocyte suspensions (final erythrocyte concentration, 1% v/v) for one hour at 37° C. After cooling and centrifugation, the optical density of the supernatants were measured at 540 nm. Peptide concentrations causing 50% hemolysis (EC50) were derived from the dose-response curves.

[2] = system: Escherichia coli ATCC 25922; test: Antimicrobial assay (MIC), E. coli; assay type: cell-based; conditions: overnight at 37° C.
Description: Antimicrobial assay. Two bacterial strains (Escherichia coli ATCC 25922 and Enterococcus faecalis ATCC 29212) were inoculated on heart infusion agar with 5% sheep blood and incubated aerobically overnight at 37° C. From the pure cultures, suspensions were made in saline to a density of 0.5 McFarland. These suspensions were diluted ten-fold in Mueller Hinton II broth, resulting in a final inoculum of approximately 10^7 cfu/ml.
Standard 96-well microtiter trays were filled with 100 ill of two-fold dilutions of peptide in physiologic salt solution in each well, resulting in the following concentration range: 4000, 2000, 1000, 500, 250, 125, 62.25, 31.63, 15.82, 7.96 and 0 μg/ml. The trays in column 12 were filled with 200 μl MH II broth (negative control).
Columns 1-11 of the microtiter trays were filled with 100 μl of the final inoculum of the bacterial suspensions, thus diluting the concentrations of the peptide two fold, resulting in the following peptide concentration range in the wells: 2000, 1000, 500, 250, 125, 62.25, 31.63, 15.82, 7.96, 3.98 and 0 μg/ml. In rows B, C and D, 100 μl of the final inoculum of E. coli and, in rows E, F and G, 100 μl of the final inoculum of E. faecalis was pipetted. The final bacterial concentration was approximately 5×10^5 cfu/well. All trays were sealed and incubated overnight at 37° C. After incubation, the microtiter trays were inspected visually for bacterial growth and the absorbance of the cultures at 630 nm (A630) was determined with an ELISA-reader. […] The experiment was performed independently in triplicate. The test was repeated again in triplicate after two days with the final peptide concentration range in the wells: 5000, 2500, 1250, 625, 312.5, 156.25, 78.12, 39.06, 19.58, 9.79, 4.88, 2.44 and 1.22 μg/ml.

Compound	Concentration (translocation activity), optimization of E^rns peptide [1] [µM]	Translocation activity (in words) [1]	Accumulation in the skin compared with MDK-20 (skin of a live pig)	Concentration (translocation activity), optimization of E^rns peptide ([1]; Table 9, lower concentration = higher translocation activity) [µM]	Hemolysis (peptide concentration causing 50% hemolysis) (guinea pig erythrocytes) [mg/mL]	MIC (minimal inhibitory concentration needed to inhibit bacterial growth) [2] [µg/mL]
Biotin-RSRGRLRRGAIRLQRG-Lysine (MTT)- broomacetic acid [A941]	0.03	higher translocation activity compared with the original MDK-20	Much more accumulation in the skin	–	–	–
CC[C@H](C)[C@H](NC(=O)[C@H](CCCNC(=N)N)NC(=O)[C@H](CC(C)C)NC(=O)[C@H](CCC(N)=O)NC(=O)[C@H](CCCNC(=N)N)NC(=O)CNC(=O)CCCC[C@@H]1SC[C@@H]2NC(=O)N[C@@H]21)C(=O)N[C@@H](C)C(=O)NCC(=O)N[C@@H](CCCCN)C(=O)N[C@@H](CCCNC(=N)N)C(=O)N[C@@H](CC(C)C)C(=O)N[C@@H](CCC(=O)O)C(=O)NCC(=O)N[C@@H](CCCNC(=N)N)C(=O)N[C@@H](CO)C(=O)N[C@@H](CCCCN)C(N)=O [205-220]	–	–	–	1.0	>0.33	>500
CC[C@H](C)[C@H](NC(=O)[C@H](CCCNC(=N)N)NC(=O)[C@H](CC(C)C)NC(=O)[C@H](CCC(N)=O)NC(=O)[C@H](CCCNC(=N)N)NC(=O)CNC(=O)[C@H](CC(C)C)NC(=O)[C@H](Cc1c[nH]c2ccccc12)NC(=O)[C@H](CO)NC(=O)[C@@H](NC(=O)[C@@H](NC(=O)[C@H](CCCNC(=N)N)NC(=O)[C@H](C)NC(=O)[C@H](C)NC(=O)CNC(=O)[C@H](CCC(N)=O)NC(=O)[C@H](CCCNC(=N)N)NC(=O)[C@H](C)NC(=O)[C@H](CC(N)=O)NC(=O)[C@H](CCC(=O)O)NC(=O)[C@@H](NC(=O)[C@@H](NC(=O)[C@H](CC(N)=O)NC(=O)[C@@H](NC(=O)[C@H](CCSC)NC(=O)CNC(=O)[C@H](CC(=O)O)NC(=O)[C@H](CC(C)C)NC(=O)[C@H](CC(C)C)NC(=O)[C@H](Cc1ccc(O)cc1)NC(=O)CCCC[C@@H]1SC[C@@H]2NC(=O)N[C@@H]21)[C@@H](C)O)[C@@H](C)O)[C@@H](C)CC)C(C)C)[C@@H](C)O)C(=O)N[C@@H](C)C(=O)NCC(=O)N[C@@H](CCCCN)C(=O)N[C@@H](CCCNC(=N)N)C(=O)N[C@@H](CC(C)C)C(=O)N[C@@H](CCC(=O)O)C(=O)NCC(=O)N[C@@H](CCCNC(=N)N)C(=O)N[C@@H](CO)C(=O)N[C@@H](CCCCN)C(N)=O [181-220]	–	–	–	–	0.09	51 (≈ 10.8 µM)
CC(C)C[C@H](NC(=O)[C@H](CCC(N)=O)NC(=O)[C@H](CCCCN)NC(=O)CNC(=O)[C@H](CC(C)C)NC(=O)[C@H](Cc1c[nH]c2ccccc12)NC(=O)[C@@H](NC(=O)[C@@H](NC(=O)[C@H](CC(C)C)NC(=O)[C@H](CCCCN)NC(=O)[C@H](C)NC(=O)[C@@H](NC(=O)CNC(=O)[C@H](CCC(N)=O)NC(=O)[C@H](CCCNC(=N)N)NC(=O)[C@H](C)NC(=O)CNC(=O)[C@H](CCC(=O)O)NC(=O)CCCC[C@@H]1SC[C@@H]2NC(=O)N[C@@H]21)[C@@H](C)O)[C@@H](C)O)[C@@H](C)O)C(=O)NCC(=O)N[C@H](C(=O)N[C@@H](C)C(=O)NCC(=O)N[C@@H](CCCCN)C(=O)N[C@@H](CCCCN)C(=O)N[C@@H](CC(C)C)C(=O)N[C@@H](CCC(=O)O)C(=O)N[C@@H](CC(N)=O)C(=O)N[C@@H](CCCCN)C(=O)N[C@@H](CO)C(=O)N[C@@H](CCCCN)C(=O)N[C@H](C(=O)N[C@@H](Cc1c[nH]c2ccccc12)C(=O)N[C@@H](Cc1ccccc1)C(=O)NCC(=O)N[C@@H](C)C(=O)N[C@@H](Cc1ccc(O)cc1)C(=O)N[C@@H](C)C(N)=O)[C@@H](C)O)[C@@H](C)O [194-230] (Biotin-EGARQGTAKLTTWLGKQLGTAGKKLENKSKTWFGAYA-NH2)	–	–	–	–	0.25	93 (≈ 22 µM)
